In ChEMBL document CHEMBL5113506, “Discovery of novel human lactate dehydrogenase inhibitors: Structure-based virtual screening studies and biological assessment” (Eur J Med Chem, 2022):
Active and inactive are the calls of the source. The calls are words filed in the database; no cut-off is given here.

What was measured:
[1] = Antiproliferation activity against human Med1 assessed as reduction in cell viability after 24 hrs by Trypan blue exclusion assay; assay type: functional, cell-based; conditions: Medulloblastoma cell
[2] = test system: Medulloblastoma cell; assay: Antiproliferation activity against human Med1 assessed as reduction in cell viability at […] after 24 hrs by Trypan blue exclusion assay; assay type: functional, cell-based
[3] = test system: Medulloblastoma cell; assay: Antiproliferation activity against human Med1 assessed as reduction in cell viability at 1 mM after 24 hrs by Trypan blue exclusion assay; assay type: functional, cell-based
[4] = test system: Medulloblastoma cell; assay: Antiproliferation activity against human Med1 assessed as reduction in cell viability at 100 uM after 24 hrs by Trypan blue exclusion assay; assay type: functional, cell-based
[5] = biological target: T1, L-lactate dehydrogenase A chain (Homo sapiens, UniProt P00338); assay: Inhibition of LDHA in human Med1 cells using pyruvate as substrate incubated 10 mins by spectrophotometric analysis; assay type: cell-based, Medulloblastoma cell
[6] = biological target: T1, L-lactate dehydrogenase A chain; assay: Inhibition of LDHA in human Med1 cells assessed as reduction in lactate production by measuring ECAR using pyruvate as substrate incubated 6 hrs by seahorse extracellular flux analysis; assay type: cell-based; conditions: Medulloblastoma cell
[7] = test system: HCT-116; assay: Antiproliferation activity against human HCT-116 cells assessed as reduction in cell viability after 24 hrs by Trypan blue exclusion assay; assay type: functional, cell-based
[8] = test system: SW-620; assay: Antiproliferation activity against human SW-620 cells assessed as reduction in cell viability after 24 hrs by Trypan blue exclusion assay; assay type: functional, cell-based
[9] = test system: A549; assay: Antiproliferation activity against human A549 cells assessed as reduction in cell viability after 24 hrs by Trypan blue exclusion assay; assay type: functional, cell-based
[10] = test system: PANC-1; assay: Antiproliferation activity against human PANC-1 cells assessed as reduction in cell viability after 24 hrs by Trypan blue exclusion assay; assay type: functional, cell-based
[11] = test system: HCT-116; assay: Induction of apoptosis in human HCT-116 cells assessed as increase in cleaved PARP protein expression level at 80 to 320 uM after 48 hrs by Western blot analysis; assay type: functional, cell-based; conditions: dose 80-320 µM
[12] = test system: HCT-116; assay: Induction of autophagy in human HCT-116 cells assessed as increase in LC3B-I lipidation protein expression level at 80 to 320 uM after 48 hrs by Western blot analysis; assay type: functional, cell-based; conditions: dose 80-320 µM
[13] = test system: HCT-116; assay: Antiproliferation activity against human HCT-116 cells assessed as reduction in cell viability after 24 hrs in presence of rotenone by Trypan blue exclusion assay; assay type: functional, cell-based
[14] = test system: HCT-116; assay: Induction of apoptosis in human HCT-116 cells assessed as increase in cleaved PARP protein expression level after 48 hrs in presence of rotenone by Western blot analysis; assay type: functional, cell-based
[15] = test system: HCT-116; assay: Induction of […] in human HCT-116 cells assessed as increase in LC3B-I lipidation protein expression level after 48 hrs in presence of rotenone by Western blot analysis; assay type: functional, cell-based
[16] = biological target: T1, L-lactate dehydrogenase A chain; assay: Inhibition of LDHA in human liver using pyruvate as substrate incubated for 3 mins by fluorescence assay; assay type: tissue-based
[17] = biological target: L-lactate dehydrogenase B chain (Mus musculus, UniProt P16125); assay: Inhibition of mouse LDHB using sodium pyruvate as substrate
L-lactate dehydrogenase B chain, sequence (P16125 whole entry): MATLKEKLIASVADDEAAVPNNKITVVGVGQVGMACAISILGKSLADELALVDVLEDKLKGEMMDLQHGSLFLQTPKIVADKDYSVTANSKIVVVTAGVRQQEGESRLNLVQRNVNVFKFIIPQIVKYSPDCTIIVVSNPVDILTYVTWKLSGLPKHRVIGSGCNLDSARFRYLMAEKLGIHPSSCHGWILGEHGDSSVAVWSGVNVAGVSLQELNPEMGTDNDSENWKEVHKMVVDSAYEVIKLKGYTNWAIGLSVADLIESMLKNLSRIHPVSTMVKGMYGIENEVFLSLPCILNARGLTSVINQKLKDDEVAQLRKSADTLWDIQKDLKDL

With Cc1nn(-c2ncc(NC(=O)C3(c4ccccc4)CCOCC3)cn2)c(C)c1C the IC50 [1] was 29.8 nM, the Activity [2] was “Active” and the Activity [3] was “Active”. The Activity [4] was “Active”.

With Cc1cc(C(=O)N(CCc2cccs2)C2CCOCC2)no1 the IC50 [1] was 1160 nM, the Activity [2] was “Active” and the Activity [3] was “Active”.

In the case of O=C(O)c1nnn(-c2ccc(F)cc2F)c1-c1ccccc1, the IC50 [1] is reported as 1300 nM, the Activity [2] is reported as “Active” and the Activity [3] is reported as “Active”.

For O=c1cc2c(nn1CC1CCN(C3=NS(=O)(=O)c4ccccc43)CC1)CCC2, the IC50 [1] was 81.8 nM, the Activity [2] was “Active” and the Activity [3] was “Active”. For the same compound, the Activity [4] was “Active”, the IC50 [5] was 12 nM and the inhibition [6] was “Active”. The Activity [7] was “Active”, the Activity [8] was “Active” and the Activity [9] was “Active”. The Activity [10] was “Active”, the Activity [11] was “Active” and the Activity [12] was “Active”. For the same compound, the Activity [13] was “Active”, the Activity [14] was “Active” and the Activity [15] was “Active”.

NC(=O)C(=O)O [SODIUM OXAMATE] gave an IC50 [1] of 15900 nM.

For Cc1ccc(-c2c(C)c(C(=O)O)nn2-c2ccc(Cl)c(Cl)c2)cc1C, the IC50 [1] was 1140 nM, the Activity [2] was “Active” and the Activity [3] was “Active”.

Work on O=c1cc2c(=O)oc3cc(O)c(O)oc3c2c(O)c1O yielded a Ki [16] of 5460 nM.

In the case of CSc1sc(C(=O)O)cc1-c1nc(-c2ccc(C)cc2)cs1, the IC50 [1] is reported as 964 nM, the Activity [2] is reported as “Active” and the Activity [3] is reported as “Active”.

For Cc1cc2c(C(C)C)c(O)c(O)c(C=O)c2c(O)c1-c1c(C)cc2c(C(C)C)c(O)c(O)c(C=O)c2c1O [GOSSYPOL], the Ki [17] was 1400 nM.

In the case of Cn1nc(C2CCN(C(=O)NCc3ccccc3)CC2)n(-c2ccccc2)c1=O, the IC50 [1] is reported as 1510 nM, the Activity [2] is reported as “Active” and the Activity [3] is reported as “Active”.

For CSc1cccc(-n2c(=O)n(Cc3ccc(C(=O)O)cc3)c(=O)c3[nH]cnc32)c1, the IC50 [1] was 8310 nM and the Activity [2] was “Active”.

For O=C(NCc1nn(C2CCCC2)c(=O)c2ccccc12)Nc1ccccc1F, the IC50 [1] was 8460 nM, the Activity [2] was “Active” and the Activity [3] was “Active”.
